Measured values taken from patent publication US8399106B2, “Composition and method for treating wood” (Kemira OyJ, priority 2007, dated 2013).

Assays:
[1] = wood treated only with a chelating agent; as described in WO 0123154; cited from earlier work
[2] = tested on: Aureobasidium pullulans and Sclerophoma pithyophila (pooled suspension); conditions: literature reference, 1.0% of NHA; cited from earlier work
rot fungi = test: Rot resistance / wood protection class (EN 350-1), fungus not specified; assay type: cell-based; conditions: treated wood
Protocol: Rot testing was carried out according to the EN 113 standard. 10 test samples impregnated with respective agents for each of the three rot fungi were used in the test. A sample made of surface wood of pine was placed as a control with the impregnated test samples to the same container for the rot test. Activity of each fungus was tested with eight test samples (so-called infection test). Said test samples for the fungus activity testing were placed in respective containers for the rot test without impregnated test samples.
In the method, an X value was calculated for each impregnation batch and for each fungus, said X value describing the ratio of the mass loss of the impregnated test samples to that of the unimpregnated control samples. X value was calculated by dividing the corrected mass loss of the impregnated test samples by that of the unimpregnated control samples. The calculation was based on mean values. Based on the result obtained, the rot resistance class was determined as follows for the fungus with the highest rot activity:

## O=C(O)CN(CCN(CC(=O)O)CC(=O)O)CC(=O)O [EDTA, ethylenediaminetetraacetic acid]
[1]
  amounts washed out of wood, in words: so high

## O=C1c2cccc3cccc(c23)C(=O)N1O [NHA, N,N-naphthaloylhydroxylamine]
[2]
  Microbial growth 0 to 5: 4 (high amounts of microbial growth (more than 40% of the surface of the test sample covered by microbial growth))

## O=C[O-].O=C[O-].[Ca+2] [calcium formate]
Rot fungi
  wood protection class (rot protection standard EN 350-1, classes 1-5): 3 (Class 3=reasonably resistant 0.30<X≦0.60)
